Values after ≈ are worked out from the molar mass of the structure shown. Counter-ions that a name gives are not always drawn. Like-named read-outs stand apart in the source and are kept apart here. Some results are limits rather than exact numbers.

In one data set the test system is aerobic bacteria. Briefly: antibacterial activity against aerobic bacteria. The class given is cell-based. To be noted: for activity against usual aerobic organisms: E. coli and K. pneumoniae; for susceptibility of Bacillus species, streptococci, Neisseria meningitidis, N. gonorrhoeae and Hemophilus influenzae: in vitro.
A further data set has as its system C. perfringens A9635. The class given is in vivo, mice. To be noted: po; 5 days.
The nature of data set [1]: Stability in acidic and alkaline solution. It is filed as physicochemical. The settings on record: for stability in alkaline solution: relative to acidic.
The subject of data set [2] is various aerobic and anaerobic organisms. Briefly: Antibacterial spectrum. The settings on record: variety of anaerobic bacteria and some aerobic bacteria.
Data set [3] relates to two anaerobic and one aerobic organisms. Briefly: Bactericidal activity. It is filed as cell-based.
A short description of another data set: Solubility. The class given is physicochemical. To be noted: lower alcohols, ethyl acetate, chloroform and benzene.
The subject of data set [4] is C. perfringens or S. pyogenes. The class given is in vivo, mice.
The subject of data set [5] is Neisseria meninigitidis A21496. Description: MIC, serial two-fold agar dilution, aerobic bacteria. It is filed as cell-based. The settings on record: Nm-4, medium B: GC medium (Eiken). A general note: In agar dilution the substance is mixed into plates at graded concentrations.
In a further data set the test system is B. fragilis A20928-1. Description: Inoculum size effect on MIC. It is filed as cell-based. To be noted: Bacteroides fragilis, A209281, read-out: MIC in GAM broth, GAM broth; inoculum […] 10^6 cell/ml.
The test system of another data set is S. pyogenes A20201. Description: Systemic infection with S. pyogenes in mice. To be noted: po; 5 days. It is filed as in vivo.
Data set [6] relates to Klebsiella pneumoniae A9678. Briefly: MIC, serial two-fold agar dilution, aerobic bacteria. The class given is cell-based. The settings on record: Kp-2; medium A: Nutrient agar (Eiken).
The subject of another data set is B. fragilis A20926. Briefly: Localized infection with B. fragilis in mice. The class given is in vivo.
In data set [7] the test system is Neisseria meninigitidis A20049. Briefly: MIC, serial two-fold agar dilution, aerobic bacteria. The class given is cell-based.
For data set [8] the following is noted: subcutaneous and oral.
Data set [9] deals with Escherichia coli K-12 A9632. Description: MIC, serial two-fold agar dilution, aerobic bacteria. To be noted: K12A9632.
The subject of a further data set is bacterial RNA polymerase. The settings on record: Antimicrobial Agents and Chemotherapy 1976, page 618; cited from earlier work.
Setting [10] is: Nm-2, medium B: GC medium (Eiken), read-out: MIC.

For `COC(=O)C1C(C)OC2(C)CC(=O)C3OC12OC(C(C)/C=C(C)/C=C/C(=O)C1=C(O)CN(C)C1=O)C3C` (centres unmarked) [Bu-2313A], the “activity against usual aerobic organisms” value in the data set with aerobic bacteria was “only moderate to weak activity”. For the same compound, the “susceptibility of Bacillus species, streptococci, Neisseria meningitidis, N. gonorrhoeae and Hemophilus influenzae” value with aerobic bacteria is “susceptible”. Further, the PD50 result in the data set on C. perfringens A9635 was “NA at 50”; in the data set on S. pyogenes A20201, “NA at 25”. Further, the “stability in acidic solution” value in data set [1] is “stable”. In data set [1], the “stability in alkaline solution” value was “less so”. In data set [2], the antibacterial activity entry is given as “exhibit antibacterial activity”. Also, in [3], the “type of antibacterial action” value is on record as “bacteriostatic rather than bactericidal”. For the same compound, the “solubility in most organic solvents” value in “Solubility” is on record as “readily soluble”. Besides, the “activity by the oral route” value in data set [4] (oral) was “inactive”. The MIC was 3.1 µg/mL (≈ 5.99 µM) in data set [5], 6 ng/mL (≈ 0.0116 µM) in the data set on B. fragilis A20928-1 and “> meningitidis” in [6].

As to `COC(=O)C1C(C)OC2(C)CC(=O)C3OC12OC(C(C)/C=C(C)/C=C/C(=O)C1=C(O)CNC1=O)C3C` (centres unmarked) [Bu-2313B (Na salt)], the mean score in the data set with B. fragilis A20926 (oral, 6.3 × 5 mg/kg) was determined as 3.4; with B. fragilis A20926 (oral, 25 × 5 mg/kg), 3.0; in the data set on B. fragilis A20926 (oral, 100 × 5 mg/kg), 2.4; with B. fragilis A20926 (oral, […] 5 mg/kg), 4.0; in the data set on B. fragilis A20926 (subcutaneous, 0.8 × 5 mg/kg) it was 4.0; in the data set on B. fragilis A20926 (subcutaneous, 3.1 × 5 mg/kg) it was 3.4. Also, the mean score with B. fragilis A20926 (subcutaneous, 50 × 5 mg/kg) was determined as 2.2; in the data set with B. fragilis A20926 (subcutaneous, […] 5 mg/kg) it was 2.8. Besides, the sum of score is 17 in the data set on B. fragilis A20926 (oral, 6.3 × 5 mg/kg); 15 in the data set on B. fragilis A20926 (oral, 25 × 5 mg/kg); 12 in the data set on B. fragilis A20926 (oral, 100 × 5 mg/kg); 20 with B. fragilis A20926 (oral, […] 5 mg/kg); 20 in the data set with B. fragilis A20926 (subcutaneous, 0.8 × 5 mg/kg); 17 in the data set with B. fragilis A20926 (subcutaneous, 3.1 × 5 mg/kg). Moreover, the sum of score in the data set on B. fragilis A20926 (subcutaneous, 50 × 5 mg/kg) was 11; in the data set with B. fragilis A20926 (subcutaneous, […] 5 mg/kg), 14.

As for `COC(=O)C1C(C)OC2(C)CC(=O)C3OC12OC(C(C)/C=C(C)/C=C/C(=O)C1=C(O)CNC1=O)C3C` (centres unmarked) [Bu-2313B], in the data set with aerobic bacteria, the “activity against usual aerobic organisms” value is given as “only moderate to weak activity”; the “susceptibility of Bacillus species, streptococci, Neisseria meningitidis, N. gonorrhoeae and Hemophilus influenzae” value is “susceptible”. In [1], the “stability in acidic solution” value is listed as “stable” and the “stability in alkaline solution” value is on record as “less so”. Moreover, the antibacterial activity result in data set [2] is “exhibit antibacterial activity”. In data set [7] (setting [10]), the minimum inhibitory concentration (MIC) was determined as 0.8 µg/mL (≈ 1.59 µM). For the same compound, in [3], the “type of antibacterial action” value is on record as “bacteriostatic rather than bactericidal”. The “solubility in most organic solvents” value in the data set “Solubility” is “readily soluble”. Further, the “protection against systemic infections” value in data set [4] (both subcutaneous and oral administration) was “fairly good protection”. The minimum inhibitory concentration (MIC) in [5] stood at 1.6 µg/mL (≈ 3.18 µM).

Consider `CCC[C@@H]1C[C@@H](C(=O)N[C@@H]([C@H]2O[C@H](SC)[C@H](O)[C@@H](O)[C@H]2O)[C@H](C)Cl)N(C)C1` [Clindamycin], for which, in [7], it took 0.05 µg/mL (≈ 0.118 µM) to inhibit growth (MIC). In addition, the mean score came to 2.6 with B. fragilis A20926 (oral, 6.3 × 5 mg/kg); 1.8 in the data set on B. fragilis A20926 (oral, 25 × 5 mg/kg); 4.0 in the data set on B. fragilis A20926 (oral, […] 5 mg/kg); 4.0 in the data set with B. fragilis A20926 (subcutaneous, 0.8 × 5 mg/kg); 2.0 with B. fragilis A20926 (subcutaneous, 3.1 × 5 mg/kg); 0.8 in the data set with B. fragilis A20926 (subcutaneous, 50 × 5 mg/kg). The same compound showed a mean score in the data set with B. fragilis A20926 (subcutaneous, […] 5 mg/kg) of 1.4. Besides, the sum of score is on record as 13 with B. fragilis A20926 (oral, 6.3 × 5 mg/kg); 9 in the data set on B. fragilis A20926 (oral, 25 × 5 mg/kg); 2 with B. fragilis A20926 (oral, 100 × 5 mg/kg); 20 in the data set with B. fragilis A20926 (oral, […] 5 mg/kg); 20 in the data set on B. fragilis A20926 (subcutaneous, 0.8 × 5 mg/kg); 10 in the data set with B. fragilis A20926 (subcutaneous, 3.1 × 5 mg/kg). For the same compound, the sum of score was 4 with B. fragilis A20926 (subcutaneous, 50 × 5 mg/kg) and 7 with B. fragilis A20926 (subcutaneous, […] 5 mg/kg).

As for `Cc1ncc([N+](=O)[O-])n1CCO` [Flagyl], the “absorption relative to Bu-2313B” value in [8] is “better absorptions than Bu-2313B”. Moreover, the mean score in the data set on B. fragilis A20926 (oral, 6.3 × 5 mg/kg) is listed as 3.4; in the data set on B. fragilis A20926 (oral, 25 × 5 mg/kg), 2.6; in the data set on B. fragilis A20926 (oral, 100 × 5 mg/kg), 1.6; with B. fragilis A20926 (oral, […] 5 mg/kg), 4.0; in the data set on B. fragilis A20926 (subcutaneous, 0.8 × 5 mg/kg) it was 4.0; in the data set with B. fragilis A20926 (subcutaneous, 3.1 × 5 mg/kg), 3.4. The mean score with B. fragilis A20926 (subcutaneous, 50 × 5 mg/kg) is 2.0; in the data set with B. fragilis A20926 (subcutaneous, […] 5 mg/kg) it was 2.4. Further, the sum of score was 17 in the data set on B. fragilis A20926 (oral, 6.3 × 5 mg/kg); 13 in the data set with B. fragilis A20926 (oral, 25 × 5 mg/kg); 8 with B. fragilis A20926 (oral, 100 × 5 mg/kg); 20 in the data set on B. fragilis A20926 (oral, […] 5 mg/kg); 20 in the data set with B. fragilis A20926 (subcutaneous, 0.8 × 5 mg/kg); 17 with B. fragilis A20926 (subcutaneous, 3.1 × 5 mg/kg). For the same compound, the sum of score came to 10 in the data set on B. fragilis A20926 (subcutaneous, 50 × 5 mg/kg) and 12 in the data set with B. fragilis A20926 (subcutaneous, […] 5 mg/kg).

Turning to `CC(/C=C/C(=O)C1=C(O)CNC1=O)=C\C(C)C1OC2(C)OC(C(=O)C3OC32C)C1C` (centres unmarked) [Tirandamycin], the MIC in [9] was 100 µg/mL (≈ 240 µM); in [7] (setting [10]) it was 0.8 µg/mL (≈ 1.92 µM); in data set [5], 0.8 µg/mL (≈ 1.92 µM). In addition, the “inhibition of bacterial RNA polymerase” value with bacterial RNA polymerase is recorded as “inhibitor of bacterial RNA polymerase”.

On to `CNC(=O)C(C)C1C(O)=C(C(=O)/C=C/C(C)=C/C(C)C2OC3(C)OC(C=CC34CO4)C2C)C(=O)N1C1CCC(O)C(C)O1` (centres unmarked) [streptolydigin], for which the “inhibition of bacterial RNA polymerase” value with bacterial RNA polymerase is given as “inhibitor of bacterial RNA polymerase in a manner similar to streptolydigin”.

Usually MIC stands for the least concentration at which growth counts as inhibited.
